Columns and labels:
Test in all cases: biochemical
Details in all cases: read-out: Dundee KSS % inhibition at 1uM
[1] = target: T1, CAMKKB (Homo sapiens, UniProt Q96RR4)
T1 construct: gene CAMKK2
Procedure: (§1) The METi and RAFi were screened against kinase panels (SelectScreen, Invitrogen; University of Dundee, Division of Signal Transduction Therapy, UK; Upstate Biotechnology/Millipore, Billerica, MA). In these selectivity assays the concentration of ATP was set to the Km value of ATP for each kinase tested to allow for a relative potency comparison between the various kinases. The compounds were tested at 1 µM final concentration. […] (A) Kinase selectivity screen (KSS) performed at Upstate Biotechnology. […] (B) KSS performed at University of Dundee (Division of Signal Transduction Therapy). […] (PDF) Click here for additional data file.

[2] = target: T2, NEK2a (Homo sapiens, UniProt P51955)
T2 construct: gene NEK2; isoform A
Procedure: as §1

[3] = target: CSK (Homo sapiens, UniProt P41240)
Procedure: as §1

[4] = target: T3, deltaPH-PKBbeta (Homo sapiens, UniProt P31751)
T3 construct: gene AKT2; delta PH
Procedure: as §1

[5] = target: MAPK1/ERK2 (Homo sapiens, UniProt P28482)
Procedure: as §1

[6] = target: chicken SRC (Gallus gallus, UniProt P00523)
Procedure: as §1

[7] = target: T4, MSK1 (Homo sapiens, UniProt O75582)
T4 construct: gene RPS6KA5
Procedure: as §1

[8] = target: PBK (Homo sapiens, UniProt Q96KB5)
Procedure: as §1

[9] = target: T5, JNK2 (Homo sapiens, UniProt P45984)
T5 construct: gene MAPK9
Procedure: as §1

[10] = target: T6, SAPK3/p38g (Homo sapiens, UniProt P53778)
T6 construct: gene MAPK12
Procedure: as §1

[11] = target: NEK7 (Homo sapiens, UniProt Q8TDX7)
Procedure: as §1

[12] = target: T7, JNK3 (Homo sapiens, UniProt P53779)
T7 construct: gene MAPK10
Procedure: as §1

[13] = target: T8, MKK1 (Homo sapiens, UniProt Q02750)
T8 construct: gene MAP2K1
Procedure: as §1

[14] = target: T9, MNK1 (Homo sapiens, UniProt Q9BUB5)
T9 construct: gene MKNK1
Procedure: as §1

[15] = target: T10, SAPK4/p38d (Homo sapiens, UniProt O15264)
T10 construct: gene MAPK13
Procedure: as §1

[16] = target: T11, JNK/SAPK1c (Homo sapiens, UniProt P45983)
T11 construct: gene MAPK8
Procedure: as §1

[17] = target: T12, rat ROCKII (Rattus norvegicus, UniProt Q62868)
T12 construct: gene Rock2
Procedure: as §1

[18] = target: T13, DYRK2 (Homo sapiens, UniProt Q92630)
T13 sequence (Q92630 1-601): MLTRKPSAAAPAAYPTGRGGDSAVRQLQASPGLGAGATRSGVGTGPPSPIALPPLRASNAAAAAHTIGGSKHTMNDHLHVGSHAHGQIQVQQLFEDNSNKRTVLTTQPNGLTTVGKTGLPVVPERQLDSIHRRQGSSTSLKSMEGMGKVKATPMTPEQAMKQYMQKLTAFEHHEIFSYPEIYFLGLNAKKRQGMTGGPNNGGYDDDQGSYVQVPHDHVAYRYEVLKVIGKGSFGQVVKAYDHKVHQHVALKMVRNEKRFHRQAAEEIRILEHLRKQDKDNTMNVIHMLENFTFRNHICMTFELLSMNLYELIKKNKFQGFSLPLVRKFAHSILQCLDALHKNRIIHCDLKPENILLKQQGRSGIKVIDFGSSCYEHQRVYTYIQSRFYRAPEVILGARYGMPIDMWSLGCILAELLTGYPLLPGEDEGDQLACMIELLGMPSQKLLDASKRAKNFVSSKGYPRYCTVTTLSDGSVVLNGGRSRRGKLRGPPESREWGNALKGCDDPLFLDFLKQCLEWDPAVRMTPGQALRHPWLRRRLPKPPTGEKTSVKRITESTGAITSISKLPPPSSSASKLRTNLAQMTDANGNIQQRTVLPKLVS
Procedure: as §1

[19] = target: T14, PRK2 (Homo sapiens, UniProt Q16513)
T14 construct: gene PKN2
Procedure: as §1

[20] = target: T15, SAPK2A/p38 (Homo sapiens, UniProt Q16539)
T15 construct: gene MAPK14
Procedure: as §1

[21] = target: T16, CHK1 (Homo sapiens, UniProt O14757)
T16 construct: gene CHEK1
Procedure: as §1

[22] = target: T17, deltaPH-PKBalpha (Homo sapiens, UniProt P31749)
T17 construct: gene AKT1; delta PH
Procedure: as §1

[23] = target: rat DYRK1A (Rattus norvegicus, UniProt Q63470)
Procedure: as §1

[24] = target: NEK6 (Homo sapiens, UniProt Q9HC98)
Procedure: as §1

[25] = target: T18, AuroraC (Homo sapiens, UniProt Q9UQB9)
T18 construct: gene AURKC
Procedure: as §1

[26] = target: T19, MAPKAP-K1a (Homo sapiens, UniProt Q15418)
T19 construct: gene RPS6KA1
Procedure: as §1

T14 sequence (Q16513 whole entry): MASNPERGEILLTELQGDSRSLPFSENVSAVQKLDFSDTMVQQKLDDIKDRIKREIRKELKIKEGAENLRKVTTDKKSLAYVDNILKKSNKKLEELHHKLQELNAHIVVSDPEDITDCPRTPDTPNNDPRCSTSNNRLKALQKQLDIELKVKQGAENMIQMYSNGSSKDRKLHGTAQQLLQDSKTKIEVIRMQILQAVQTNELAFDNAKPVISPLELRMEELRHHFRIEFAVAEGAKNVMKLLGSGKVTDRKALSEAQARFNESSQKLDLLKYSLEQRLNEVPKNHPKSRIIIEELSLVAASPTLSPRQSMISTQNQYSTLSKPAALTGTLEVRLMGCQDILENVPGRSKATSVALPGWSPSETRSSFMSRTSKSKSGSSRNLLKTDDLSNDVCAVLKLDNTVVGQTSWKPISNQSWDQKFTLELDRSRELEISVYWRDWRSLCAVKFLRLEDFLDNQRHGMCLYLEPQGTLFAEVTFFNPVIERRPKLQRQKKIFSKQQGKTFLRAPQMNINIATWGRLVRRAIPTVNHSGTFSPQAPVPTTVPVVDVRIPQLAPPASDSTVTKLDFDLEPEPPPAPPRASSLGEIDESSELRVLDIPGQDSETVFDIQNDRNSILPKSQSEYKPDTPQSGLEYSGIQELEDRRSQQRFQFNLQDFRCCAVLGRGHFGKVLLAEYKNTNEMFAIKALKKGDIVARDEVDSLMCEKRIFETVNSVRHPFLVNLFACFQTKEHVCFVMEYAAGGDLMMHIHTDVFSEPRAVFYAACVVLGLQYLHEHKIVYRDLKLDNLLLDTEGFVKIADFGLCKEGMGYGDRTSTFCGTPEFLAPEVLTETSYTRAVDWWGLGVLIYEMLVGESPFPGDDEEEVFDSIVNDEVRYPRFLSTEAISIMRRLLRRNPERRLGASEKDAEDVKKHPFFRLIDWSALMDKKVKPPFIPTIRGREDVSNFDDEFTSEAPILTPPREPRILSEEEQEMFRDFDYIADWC
T16 sequence (O14757 whole entry): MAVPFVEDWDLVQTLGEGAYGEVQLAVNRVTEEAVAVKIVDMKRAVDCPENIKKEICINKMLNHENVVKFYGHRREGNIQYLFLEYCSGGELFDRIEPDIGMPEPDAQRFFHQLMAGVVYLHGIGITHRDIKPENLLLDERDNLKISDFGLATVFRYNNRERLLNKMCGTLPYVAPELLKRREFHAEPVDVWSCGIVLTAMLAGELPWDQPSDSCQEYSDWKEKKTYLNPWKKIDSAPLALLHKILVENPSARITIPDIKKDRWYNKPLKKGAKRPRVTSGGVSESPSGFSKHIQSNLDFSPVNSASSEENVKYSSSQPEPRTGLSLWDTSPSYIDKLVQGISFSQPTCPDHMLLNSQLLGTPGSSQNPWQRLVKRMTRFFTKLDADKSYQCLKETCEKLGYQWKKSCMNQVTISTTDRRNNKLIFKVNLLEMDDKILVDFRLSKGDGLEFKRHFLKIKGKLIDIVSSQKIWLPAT
T8 sequence (Q02750 whole entry): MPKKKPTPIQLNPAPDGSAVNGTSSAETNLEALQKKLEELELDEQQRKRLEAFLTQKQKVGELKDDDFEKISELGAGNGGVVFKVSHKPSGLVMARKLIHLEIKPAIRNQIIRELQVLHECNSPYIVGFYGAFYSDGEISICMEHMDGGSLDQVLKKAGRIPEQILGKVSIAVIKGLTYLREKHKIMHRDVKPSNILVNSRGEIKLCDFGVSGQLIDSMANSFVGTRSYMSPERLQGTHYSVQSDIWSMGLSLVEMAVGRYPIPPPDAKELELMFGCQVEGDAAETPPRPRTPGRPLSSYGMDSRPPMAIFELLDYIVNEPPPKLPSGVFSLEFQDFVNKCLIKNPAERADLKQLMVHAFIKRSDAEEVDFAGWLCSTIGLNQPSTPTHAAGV
T3 sequence (P31751 whole entry): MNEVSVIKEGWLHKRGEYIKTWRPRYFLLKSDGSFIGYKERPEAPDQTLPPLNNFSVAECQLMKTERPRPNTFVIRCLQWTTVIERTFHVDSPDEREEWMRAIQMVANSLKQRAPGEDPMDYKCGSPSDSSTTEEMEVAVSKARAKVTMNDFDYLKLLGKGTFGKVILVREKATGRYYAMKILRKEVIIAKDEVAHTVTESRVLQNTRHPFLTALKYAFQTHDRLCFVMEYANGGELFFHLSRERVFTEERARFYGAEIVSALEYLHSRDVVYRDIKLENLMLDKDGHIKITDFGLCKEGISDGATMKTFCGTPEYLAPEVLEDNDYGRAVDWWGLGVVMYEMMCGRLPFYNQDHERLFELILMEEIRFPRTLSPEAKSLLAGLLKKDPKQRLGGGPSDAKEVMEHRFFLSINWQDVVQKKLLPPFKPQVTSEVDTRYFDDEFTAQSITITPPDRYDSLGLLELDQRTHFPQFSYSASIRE
MAPK1/ERK2, sequence (P28482 whole entry): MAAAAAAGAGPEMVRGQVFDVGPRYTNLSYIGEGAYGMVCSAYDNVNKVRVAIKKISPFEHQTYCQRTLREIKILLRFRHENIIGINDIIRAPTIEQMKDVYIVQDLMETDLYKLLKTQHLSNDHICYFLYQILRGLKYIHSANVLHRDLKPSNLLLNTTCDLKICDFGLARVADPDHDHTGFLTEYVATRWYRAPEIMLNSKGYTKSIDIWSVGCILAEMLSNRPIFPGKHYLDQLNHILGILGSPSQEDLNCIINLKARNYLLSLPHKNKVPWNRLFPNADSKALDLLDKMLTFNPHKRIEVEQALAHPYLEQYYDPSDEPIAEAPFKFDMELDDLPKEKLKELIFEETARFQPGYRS
T9 sequence (Q9BUB5 whole entry): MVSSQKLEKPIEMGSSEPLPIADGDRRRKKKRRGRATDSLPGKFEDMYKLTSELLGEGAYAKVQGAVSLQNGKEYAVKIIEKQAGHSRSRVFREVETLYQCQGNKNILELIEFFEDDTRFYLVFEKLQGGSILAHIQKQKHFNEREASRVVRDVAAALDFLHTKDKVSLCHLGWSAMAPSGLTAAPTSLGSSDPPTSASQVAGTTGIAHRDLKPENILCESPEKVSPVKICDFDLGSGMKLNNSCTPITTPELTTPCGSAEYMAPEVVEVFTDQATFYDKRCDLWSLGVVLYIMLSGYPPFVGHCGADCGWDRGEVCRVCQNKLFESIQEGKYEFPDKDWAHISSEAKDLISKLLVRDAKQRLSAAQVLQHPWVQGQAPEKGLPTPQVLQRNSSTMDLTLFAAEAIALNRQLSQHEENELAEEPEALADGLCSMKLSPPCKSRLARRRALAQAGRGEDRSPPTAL
T19 sequence (Q15418 whole entry): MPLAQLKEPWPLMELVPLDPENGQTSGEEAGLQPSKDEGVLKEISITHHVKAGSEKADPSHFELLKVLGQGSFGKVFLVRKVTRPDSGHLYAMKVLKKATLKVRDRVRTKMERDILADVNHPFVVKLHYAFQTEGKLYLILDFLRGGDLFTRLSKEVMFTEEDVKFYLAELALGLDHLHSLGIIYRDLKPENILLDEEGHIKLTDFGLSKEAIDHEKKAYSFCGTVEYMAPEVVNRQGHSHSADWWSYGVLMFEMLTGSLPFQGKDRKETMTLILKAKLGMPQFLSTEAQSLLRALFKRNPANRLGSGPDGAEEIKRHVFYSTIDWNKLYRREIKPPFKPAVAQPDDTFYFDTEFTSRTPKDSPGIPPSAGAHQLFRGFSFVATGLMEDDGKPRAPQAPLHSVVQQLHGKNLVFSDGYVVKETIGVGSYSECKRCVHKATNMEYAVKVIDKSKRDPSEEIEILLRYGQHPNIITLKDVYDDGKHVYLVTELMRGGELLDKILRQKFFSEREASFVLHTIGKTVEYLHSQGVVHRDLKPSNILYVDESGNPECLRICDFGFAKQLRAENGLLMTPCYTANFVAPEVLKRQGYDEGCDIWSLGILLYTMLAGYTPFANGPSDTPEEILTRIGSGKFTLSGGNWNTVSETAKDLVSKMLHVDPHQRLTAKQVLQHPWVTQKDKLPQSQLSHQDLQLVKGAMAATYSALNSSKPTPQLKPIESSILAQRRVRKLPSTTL
T10 sequence (O15264 whole entry): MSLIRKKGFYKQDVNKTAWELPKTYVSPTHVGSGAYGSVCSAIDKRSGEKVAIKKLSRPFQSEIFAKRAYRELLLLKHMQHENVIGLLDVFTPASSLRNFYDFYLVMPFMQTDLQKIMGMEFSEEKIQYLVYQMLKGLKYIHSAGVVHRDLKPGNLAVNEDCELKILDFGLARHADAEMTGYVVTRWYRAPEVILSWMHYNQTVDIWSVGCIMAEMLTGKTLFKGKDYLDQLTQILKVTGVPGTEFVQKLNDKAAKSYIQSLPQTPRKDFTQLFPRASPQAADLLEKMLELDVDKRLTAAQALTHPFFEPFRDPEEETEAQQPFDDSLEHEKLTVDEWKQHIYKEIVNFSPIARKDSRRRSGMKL
NEK7, sequence (Q8TDX7 whole entry): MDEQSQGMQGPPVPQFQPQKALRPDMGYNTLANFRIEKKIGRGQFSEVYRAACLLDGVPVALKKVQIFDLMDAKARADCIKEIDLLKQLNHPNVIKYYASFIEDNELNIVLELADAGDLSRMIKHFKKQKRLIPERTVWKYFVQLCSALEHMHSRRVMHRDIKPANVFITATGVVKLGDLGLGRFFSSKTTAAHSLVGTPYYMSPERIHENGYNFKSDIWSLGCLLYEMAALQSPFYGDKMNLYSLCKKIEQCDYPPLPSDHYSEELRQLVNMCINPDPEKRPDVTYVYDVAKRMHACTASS
T15 sequence (Q16539 whole entry): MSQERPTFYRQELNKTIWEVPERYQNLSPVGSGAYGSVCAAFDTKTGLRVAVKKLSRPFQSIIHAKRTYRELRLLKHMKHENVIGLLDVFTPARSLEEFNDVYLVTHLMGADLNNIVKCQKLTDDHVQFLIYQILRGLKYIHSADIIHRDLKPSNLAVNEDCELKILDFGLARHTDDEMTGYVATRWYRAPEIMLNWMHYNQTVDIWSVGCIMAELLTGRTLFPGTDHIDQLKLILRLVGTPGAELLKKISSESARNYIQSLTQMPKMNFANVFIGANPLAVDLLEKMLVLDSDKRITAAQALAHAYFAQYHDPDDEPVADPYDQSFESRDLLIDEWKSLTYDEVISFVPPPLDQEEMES

SMILES: OCCn1cc(-c2cnc3nnn(Cc4ccc5ncccc5c4)c3n2)cn1 [METi, PF-04217903]
- inhibition at 1 µM [1]: 16.2%
- inhibition at 1 µM [2]: -7.91%
- inhibition at 1 µM [3]: 5.77%
- inhibition at 1 µM [4]: 8.16%
- inhibition at 1 µM [5]: -13%
- inhibition at 1 µM [6]: -11.5%
- inhibition at 1 µM [7]: 5.55%
- inhibition at 1 µM [8]: 5.14%
- inhibition at 1 µM [9]: 14.9%
- inhibition at 1 µM [10]: 3.7%
- inhibition at 1 µM [11]: -7.5%
- inhibition at 1 µM [12]: -2.36%
- inhibition at 1 µM [13]: 25.2%
- inhibition at 1 µM [14]: -8.48%
- inhibition at 1 µM [15]: 4.67%
- inhibition at 1 µM [16]: 4.04%
- inhibition at 1 µM [17]: 12.8%
- inhibition at 1 µM [18]: 14.8%
- inhibition at 1 µM [19]: 11.7%
- inhibition at 1 µM [20]: 2.86%
- inhibition at 1 µM [21]: -1.96%
- inhibition at 1 µM [22]: 3.5%
- inhibition at 1 µM [23]: 2.39%
- inhibition at 1 µM [24]: 8.99%
- inhibition at 1 µM [25]: 6.48%
- inhibition at 1 µM [26]: 3.34%

From PMC3382171 (PLoS ONE, 2012)
